According to ChEMBL document CHEMBL1142466, “Itk kinase inhibitors: initial efforts to improve the metabolical stability and the cell activity of the benzimidazole lead” (Bioorg Med Chem Lett, 2008):

Key:
[1] = molecular target: Insulin receptor (Homo sapiens, UniProt P06213); experiment: Inhibition of IRK
[2] = system: Jurkat; experiment: Cytotoxicity against human JURKAT cells; format: functional; details: read-out: TC50 (the source's name)
[3] = molecular target: Tyrosine-protein kinase Lyn (Homo sapiens, UniProt P07948); experiment: Inhibition of Lyn
[4] = molecular target: T1, Tyrosine-protein kinase Tec (Homo sapiens, UniProt P42680); experiment: Inhibition of Tec kinase
T1 sequence (P42680 whole entry): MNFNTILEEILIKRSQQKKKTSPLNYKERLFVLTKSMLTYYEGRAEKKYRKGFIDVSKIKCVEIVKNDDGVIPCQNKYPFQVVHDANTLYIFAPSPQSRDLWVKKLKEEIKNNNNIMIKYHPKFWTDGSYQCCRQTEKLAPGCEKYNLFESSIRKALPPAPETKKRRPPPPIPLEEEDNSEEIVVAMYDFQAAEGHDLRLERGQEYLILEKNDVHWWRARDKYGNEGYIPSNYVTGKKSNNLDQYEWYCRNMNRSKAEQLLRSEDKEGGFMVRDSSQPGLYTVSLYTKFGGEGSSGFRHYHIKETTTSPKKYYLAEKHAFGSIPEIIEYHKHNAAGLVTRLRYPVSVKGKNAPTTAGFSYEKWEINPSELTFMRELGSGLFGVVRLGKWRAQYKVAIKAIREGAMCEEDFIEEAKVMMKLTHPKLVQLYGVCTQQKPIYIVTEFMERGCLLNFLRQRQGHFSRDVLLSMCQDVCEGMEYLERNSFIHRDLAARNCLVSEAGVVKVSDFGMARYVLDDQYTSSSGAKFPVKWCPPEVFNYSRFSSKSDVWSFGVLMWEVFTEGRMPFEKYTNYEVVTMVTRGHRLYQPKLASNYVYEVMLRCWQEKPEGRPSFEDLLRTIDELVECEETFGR

[5] = molecular target: T2, Tyrosine-protein kinase TXK (Homo sapiens, UniProt P42681); experiment: Inhibition of TXK
T2 sequence (P42681 whole entry): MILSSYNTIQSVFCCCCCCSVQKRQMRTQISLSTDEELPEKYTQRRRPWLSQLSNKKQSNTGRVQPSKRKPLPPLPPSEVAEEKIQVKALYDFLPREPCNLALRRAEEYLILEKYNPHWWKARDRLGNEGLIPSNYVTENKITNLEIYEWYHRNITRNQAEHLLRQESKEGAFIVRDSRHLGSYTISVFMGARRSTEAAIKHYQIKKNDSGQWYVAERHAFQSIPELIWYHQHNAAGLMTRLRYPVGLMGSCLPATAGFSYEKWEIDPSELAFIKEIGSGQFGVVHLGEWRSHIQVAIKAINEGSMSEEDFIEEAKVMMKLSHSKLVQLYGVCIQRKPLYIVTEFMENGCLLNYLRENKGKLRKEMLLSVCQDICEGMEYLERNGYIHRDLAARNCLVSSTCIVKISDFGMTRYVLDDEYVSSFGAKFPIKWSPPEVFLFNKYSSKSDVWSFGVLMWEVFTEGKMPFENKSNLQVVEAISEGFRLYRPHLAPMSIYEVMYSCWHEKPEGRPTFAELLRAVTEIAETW

[6] = molecular target: Cytochrome P450 2C9 (Homo sapiens, UniProt P11712); experiment: Inhibition of CYP2C9; format: ADME
[7] = molecular target: Cytochrome P450 3A4 (Homo sapiens, UniProt P08684); experiment: Inhibition of CYP3A4; format: ADME
[8] = molecular target: T3, Tyrosine-protein kinase ITK/TSK (Homo sapiens, UniProt Q08881); experiment: Inhibition of recombinant ITK by DELFIA assay
T3 sequence (Q08881 whole entry): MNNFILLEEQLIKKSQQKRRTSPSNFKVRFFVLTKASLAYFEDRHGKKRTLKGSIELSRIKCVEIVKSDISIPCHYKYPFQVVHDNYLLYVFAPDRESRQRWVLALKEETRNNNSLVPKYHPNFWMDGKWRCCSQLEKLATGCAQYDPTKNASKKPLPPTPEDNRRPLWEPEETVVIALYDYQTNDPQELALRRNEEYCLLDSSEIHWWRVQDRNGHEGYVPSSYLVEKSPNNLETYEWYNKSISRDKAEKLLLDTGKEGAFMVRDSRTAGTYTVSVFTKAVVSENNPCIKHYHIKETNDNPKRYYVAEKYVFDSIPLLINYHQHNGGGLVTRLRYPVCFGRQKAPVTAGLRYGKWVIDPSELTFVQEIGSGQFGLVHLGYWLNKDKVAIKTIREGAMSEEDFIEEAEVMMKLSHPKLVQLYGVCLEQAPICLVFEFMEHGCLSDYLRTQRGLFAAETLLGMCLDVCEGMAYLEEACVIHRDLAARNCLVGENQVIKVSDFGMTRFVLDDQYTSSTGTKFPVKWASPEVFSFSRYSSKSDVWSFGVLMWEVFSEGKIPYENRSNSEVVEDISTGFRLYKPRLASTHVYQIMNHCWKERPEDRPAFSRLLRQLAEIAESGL

[9] = system: Mus musculus; experiment: Inhibition of anti-CD3-induced IL2 production in sc dosed mouse; format: functional, organism-based

Sequence of Tyrosine-protein kinase Lyn (P07948 whole entry): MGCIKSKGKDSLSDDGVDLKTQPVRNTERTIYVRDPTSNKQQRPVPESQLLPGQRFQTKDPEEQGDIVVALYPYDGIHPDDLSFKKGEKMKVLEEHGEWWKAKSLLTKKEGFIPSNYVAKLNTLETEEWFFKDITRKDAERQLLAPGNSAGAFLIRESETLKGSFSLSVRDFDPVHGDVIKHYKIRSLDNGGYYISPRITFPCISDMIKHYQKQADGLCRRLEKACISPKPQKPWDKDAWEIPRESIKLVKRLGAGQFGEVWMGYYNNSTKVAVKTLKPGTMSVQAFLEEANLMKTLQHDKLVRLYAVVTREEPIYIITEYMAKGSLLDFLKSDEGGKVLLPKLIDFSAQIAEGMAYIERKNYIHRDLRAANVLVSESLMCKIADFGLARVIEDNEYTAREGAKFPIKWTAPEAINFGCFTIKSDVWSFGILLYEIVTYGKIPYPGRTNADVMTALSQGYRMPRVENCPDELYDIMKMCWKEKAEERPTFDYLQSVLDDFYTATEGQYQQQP
Sequence of Insulin receptor (P06213 28-758 limits assumed): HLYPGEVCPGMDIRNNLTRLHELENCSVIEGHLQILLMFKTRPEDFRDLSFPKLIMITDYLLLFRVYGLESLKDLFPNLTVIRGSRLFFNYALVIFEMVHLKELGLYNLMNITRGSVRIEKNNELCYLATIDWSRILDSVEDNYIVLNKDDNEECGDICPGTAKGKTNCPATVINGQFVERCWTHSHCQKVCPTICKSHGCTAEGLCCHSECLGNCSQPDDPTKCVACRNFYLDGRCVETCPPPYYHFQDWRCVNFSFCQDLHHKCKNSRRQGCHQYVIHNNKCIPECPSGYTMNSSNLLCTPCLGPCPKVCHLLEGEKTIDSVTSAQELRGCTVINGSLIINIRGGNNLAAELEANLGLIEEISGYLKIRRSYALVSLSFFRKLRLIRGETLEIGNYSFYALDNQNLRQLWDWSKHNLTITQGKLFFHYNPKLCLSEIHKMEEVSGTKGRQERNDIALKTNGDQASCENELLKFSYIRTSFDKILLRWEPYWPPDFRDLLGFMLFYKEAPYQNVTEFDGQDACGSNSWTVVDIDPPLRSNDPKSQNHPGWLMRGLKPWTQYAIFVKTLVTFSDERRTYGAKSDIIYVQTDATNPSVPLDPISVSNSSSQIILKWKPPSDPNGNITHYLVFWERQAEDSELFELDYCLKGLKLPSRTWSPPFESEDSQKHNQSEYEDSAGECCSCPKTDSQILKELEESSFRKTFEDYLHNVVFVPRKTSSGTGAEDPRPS
Sequence of Insulin receptor (P06213 763-1382 limits assumed): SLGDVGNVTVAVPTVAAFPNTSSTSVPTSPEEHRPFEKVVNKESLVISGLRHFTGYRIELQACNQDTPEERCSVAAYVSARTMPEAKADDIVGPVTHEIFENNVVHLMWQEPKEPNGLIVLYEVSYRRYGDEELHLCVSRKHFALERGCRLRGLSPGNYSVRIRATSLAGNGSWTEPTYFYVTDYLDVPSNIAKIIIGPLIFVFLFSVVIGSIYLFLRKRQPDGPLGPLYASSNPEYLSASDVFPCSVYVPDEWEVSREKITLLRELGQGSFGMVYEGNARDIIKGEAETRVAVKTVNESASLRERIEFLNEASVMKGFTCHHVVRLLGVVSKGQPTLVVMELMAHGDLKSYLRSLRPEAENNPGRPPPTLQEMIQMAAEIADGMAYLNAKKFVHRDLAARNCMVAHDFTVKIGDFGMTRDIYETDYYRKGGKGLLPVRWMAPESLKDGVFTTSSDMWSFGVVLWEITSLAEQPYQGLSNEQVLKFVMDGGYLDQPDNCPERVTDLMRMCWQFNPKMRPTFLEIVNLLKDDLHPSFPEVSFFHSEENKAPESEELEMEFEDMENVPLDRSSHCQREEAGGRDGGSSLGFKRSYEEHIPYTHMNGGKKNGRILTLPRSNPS
Sequence of Cytochrome P450 2C9 (P11712 whole entry): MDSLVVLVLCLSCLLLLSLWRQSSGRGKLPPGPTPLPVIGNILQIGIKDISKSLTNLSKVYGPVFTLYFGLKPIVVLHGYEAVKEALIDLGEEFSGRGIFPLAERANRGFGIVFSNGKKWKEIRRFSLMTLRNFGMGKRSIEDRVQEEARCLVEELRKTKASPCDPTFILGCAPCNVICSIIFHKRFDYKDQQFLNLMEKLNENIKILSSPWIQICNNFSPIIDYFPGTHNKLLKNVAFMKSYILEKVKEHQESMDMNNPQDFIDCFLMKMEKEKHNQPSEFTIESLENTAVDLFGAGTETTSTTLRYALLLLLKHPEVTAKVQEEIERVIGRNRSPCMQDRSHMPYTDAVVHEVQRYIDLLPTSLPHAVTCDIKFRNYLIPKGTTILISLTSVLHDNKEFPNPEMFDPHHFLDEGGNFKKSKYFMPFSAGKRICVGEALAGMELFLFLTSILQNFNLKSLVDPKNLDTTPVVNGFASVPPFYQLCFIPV
Sequence of Cytochrome P450 3A4 (P08684 whole entry): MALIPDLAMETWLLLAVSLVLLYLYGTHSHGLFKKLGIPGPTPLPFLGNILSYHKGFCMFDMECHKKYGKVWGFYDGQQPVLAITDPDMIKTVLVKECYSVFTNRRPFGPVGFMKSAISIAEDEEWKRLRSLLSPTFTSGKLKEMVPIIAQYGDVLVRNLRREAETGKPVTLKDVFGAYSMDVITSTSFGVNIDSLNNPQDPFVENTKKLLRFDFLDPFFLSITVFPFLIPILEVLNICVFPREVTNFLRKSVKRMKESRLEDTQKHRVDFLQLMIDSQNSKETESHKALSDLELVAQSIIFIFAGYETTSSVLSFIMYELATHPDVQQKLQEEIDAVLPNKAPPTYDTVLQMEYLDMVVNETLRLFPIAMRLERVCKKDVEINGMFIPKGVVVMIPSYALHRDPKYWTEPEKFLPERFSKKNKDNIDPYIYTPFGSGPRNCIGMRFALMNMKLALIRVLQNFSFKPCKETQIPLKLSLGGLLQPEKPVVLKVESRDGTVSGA

IC50 [1]	IC50 [3]	IC50 [4]	IC50 [5]	Activity [6]	Activity [7]	SMILES	CC50 [2]	other results
> 10 µM	> 10 µM	> 10 µM	0.31 µM	> 30 µM	> 30 µM	CCN(C(=O)c1ccccc1)c1ccc2c(c1)nc(NC(=O)c1ccc(C#N)cc1)n2CCC(N)=O	> 10 µM	
0.32 µM						CN(C(=O)c1ccccc1)c1ccc2c(c1)nc(NC(=O)c1ccoc1)n2CCC(N)=O		IC50 [8]: 0.01 µM
	> 10 µM	> 10 µM	0.5 µM	> 30 µM	> 30 µM	CN(C(=O)c1ccccc1)c1ccc2c(c1)nc(NC(=O)c1ccc(Cl)cc1)n2CCC(N)=O	5.8 µM	
> 10 µM						CN(C(=O)c1ccccc1)c1ccc2c(c1)nc(NC(=O)c1ccno1)n2CCC(N)=O		

Further lines, the compound ahead of its results:

SMILES	IC50 [1]	IC50 [3]	IC50 [4]	IC50 [5]	Activity [6]	Activity [7]	CC50 [2]	other results
CN(C(=O)c1ccccc1)c1ccc2c(c1)nc(NC(=O)c1ccc(C#N)cc1)n2CCC(N)=O	> 10 µM	> 10 µM	> 10 µM	0.56 µM	> 30 µM	> 30 µM	> 10 µM	
CCN(C(=O)c1ccccc1)c1ccc2c(c1)nc(NC(=O)c1ccno1)n2CCC(N)=O								IC50 [8]: 0.027 µM
Cc1cc(C(=O)Nc2nc3cc(N(C)C(=O)c4ccccc4)ccc3n2CCC(N)=O)ccc1C#N	> 10 µM							
CN(C(=O)c1ccccc1)c1ccc2c(c1)nc(NC(=O)c1ccc(C#N)nc1)n2CCC(N)=O	> 10 µM							
CC(=O)N1CCN(C(=O)c2cc(CSc3cnc(NC(=O)c4ccc(CNC(C)C(C)(C)C)cc4)s3)cc(C)c2C)CC1 (configuration not stated)								Activity [9]: Dose-dependent effect
